What was measured:
[1] = molecular target: T1, ELIC (Erwinia chrysanthemi ligand-gated ion channel) (Dickeya chrysanthemi, UniProt P0C7B7); experiment: macroscopic patch-clamp currents; format: cell-based
T1 sequence (P0C7B7 1-321): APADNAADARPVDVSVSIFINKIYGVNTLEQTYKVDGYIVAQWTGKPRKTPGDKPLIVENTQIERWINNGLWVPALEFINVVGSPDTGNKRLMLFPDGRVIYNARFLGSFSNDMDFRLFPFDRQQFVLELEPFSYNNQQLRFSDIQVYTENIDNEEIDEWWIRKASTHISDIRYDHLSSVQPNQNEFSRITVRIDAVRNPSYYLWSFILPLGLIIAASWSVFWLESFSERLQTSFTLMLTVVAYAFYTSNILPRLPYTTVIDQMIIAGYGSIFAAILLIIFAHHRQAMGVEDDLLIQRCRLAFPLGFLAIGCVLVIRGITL

[2] = molecular target: T1, ELIC (Erwinia chrysanthemi ligand-gated ion channel); experiment: whole-cell patch clamp concentration-response in HEK293 cells; format: cell-based

SMILES	macroscopic patch-clamp currents (data not shown) [1]	EC50 [2] [µM]
NCCS [cysteamine]	in our macroscopic records, the rebound current (see below) was more prominent when responses were elicited by cysteamine	–
CCCN [propylamine]	–	500 ± 100
